In patent US11866450B2, “Modulators of Cystic Fibrosis Transmembrane Conductance regulator, pharmaceutical compositions, methods of treatment, and process for making the modulators” (priority 2018, dated 2024):
Values joined by “and” are separate entries in the source; they are usually repeats but may differ in a detail not shown here. Identical values can stand only once. Like-named read-outs stand apart in the source and are kept apart here.

Columns and labels:
[1] = target: CFTR-mediated chloride transport (Homo sapiens, UniProt P13569); format: cell-based; details: enteroid cells incubated with test compound 18-24 hours, acute 10 μM forskolin and 300 nM Compound III; for Max. Activity: % of chloride transport with 3 μM Compound A, 3 μM Compound II and 300 nM acute Compound III triple combination control
How it was run: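 Human intestinal enteroid cells incubated with compound 18–24 h at 37° C., then membrane potential dye (FLIPR) read 15 min after chloride-free stimulation with 10 μM forskolin, 100 μM IBMX and 300 nM Compound III. AUC expressed as % of triple-combination control (3 μM Compound A, 3 μM Compound II, 300 nM Compound III).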

[2] = snar bond, DMSO
[3] = from Cc1c(S(=O)(=O)NC(=O)c2ccc(-n3ccc(OCC(C)(C)C(F)(F)F)n3)nc2Cl)cnn1CCCC1CNC(C)(C)C1, 14-membered ring, K2CO3/CsF/3A MS, 25.9 mM, 150.0 °C

Chain of CFTR-mediated chloride transport (P13569 whole entry, looked up): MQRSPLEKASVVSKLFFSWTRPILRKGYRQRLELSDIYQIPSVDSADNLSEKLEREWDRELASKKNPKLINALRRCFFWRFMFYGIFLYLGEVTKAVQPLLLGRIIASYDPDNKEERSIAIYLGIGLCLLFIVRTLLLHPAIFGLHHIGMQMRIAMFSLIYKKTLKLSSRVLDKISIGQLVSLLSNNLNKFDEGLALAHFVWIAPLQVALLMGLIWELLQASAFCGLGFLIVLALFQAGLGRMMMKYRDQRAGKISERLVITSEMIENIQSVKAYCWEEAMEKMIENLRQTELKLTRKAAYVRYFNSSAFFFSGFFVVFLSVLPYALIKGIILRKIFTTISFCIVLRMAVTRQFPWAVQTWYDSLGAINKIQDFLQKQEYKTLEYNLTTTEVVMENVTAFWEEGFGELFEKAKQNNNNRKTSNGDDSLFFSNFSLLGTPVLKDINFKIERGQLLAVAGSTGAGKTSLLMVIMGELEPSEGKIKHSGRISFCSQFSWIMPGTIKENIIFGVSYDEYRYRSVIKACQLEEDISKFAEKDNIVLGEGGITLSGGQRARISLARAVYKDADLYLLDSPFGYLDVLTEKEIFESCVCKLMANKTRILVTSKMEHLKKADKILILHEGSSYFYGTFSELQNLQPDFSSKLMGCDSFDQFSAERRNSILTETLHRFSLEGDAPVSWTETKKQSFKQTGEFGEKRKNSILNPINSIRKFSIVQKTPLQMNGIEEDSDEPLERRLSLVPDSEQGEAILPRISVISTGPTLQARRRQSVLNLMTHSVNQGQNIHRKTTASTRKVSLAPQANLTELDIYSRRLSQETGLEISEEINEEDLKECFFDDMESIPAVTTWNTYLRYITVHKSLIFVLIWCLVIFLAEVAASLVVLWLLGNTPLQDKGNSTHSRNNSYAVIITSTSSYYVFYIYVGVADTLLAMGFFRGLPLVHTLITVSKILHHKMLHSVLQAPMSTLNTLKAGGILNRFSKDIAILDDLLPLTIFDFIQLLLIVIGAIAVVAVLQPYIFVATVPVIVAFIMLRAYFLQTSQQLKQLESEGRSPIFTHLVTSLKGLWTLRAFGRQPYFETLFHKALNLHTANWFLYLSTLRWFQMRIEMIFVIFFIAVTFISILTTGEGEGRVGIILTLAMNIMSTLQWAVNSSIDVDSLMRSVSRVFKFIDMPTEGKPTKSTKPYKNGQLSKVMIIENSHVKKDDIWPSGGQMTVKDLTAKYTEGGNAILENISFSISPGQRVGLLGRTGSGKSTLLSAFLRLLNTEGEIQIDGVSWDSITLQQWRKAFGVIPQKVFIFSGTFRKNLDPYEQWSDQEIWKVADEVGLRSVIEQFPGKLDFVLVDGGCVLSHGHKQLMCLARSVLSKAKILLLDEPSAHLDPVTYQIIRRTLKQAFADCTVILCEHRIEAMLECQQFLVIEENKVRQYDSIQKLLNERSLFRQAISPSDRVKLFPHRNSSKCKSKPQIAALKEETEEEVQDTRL

Compound: Cc1ccc2nc1OCCC[C@@H]1CN(c3nc(-n4ccc(OCCC5(C(F)(F)F)CC5)n4)ccc3C(=O)NS2(=O)=O)C(C)(C)C1 [Compound 109, (14S)-12,12,20-Trimethyl-8-(3-{2-[1-(trifluoromethyl)cyclopropyl]ethoxy}-1H-pyrazol-1-yl)-18-oxa-2λ^6-thia-3,9,11,23-tetraazatetracyclo[17.3.1.111,14.05,10]tetracosa-1(23),5(10),6,8,19,21-hexaene-2,2,4-trione]
- EC50 [1]: < 1000 nM
- Max. Activity [1]: ++ (++ is 30-60%)
- ring closure, yield after HPLC ([2]; from Cc1ccc(S(=O)(=O)NC(=O)c2ccc(-n3ccc(OCCC4(C(F)(F)F)CC4)n3)nc2Cl)nc1OCCC[C@@H]1CN(C(=O)OC(C)(C)C)C(C)(C)C1, 15-membered ring, HCl (Boc off), K2CO3/CsF/3A MS, 62.8 mM, 140.0 °C, 2 steps): 32%

Compound: Cc1nn2cc1S(=O)(=O)NC(=O)c1ccc(-n3ccc(OCCC4(C(F)(F)F)CC4)n3)nc1N1C[C@@H](CCC2)CC1(C)C [Compound 112, (18S)-12,20,20-trimethyl-4-(3-{2-[1-(trifluoromethyl)cyclopropyl]ethoxy}-1H-pyrazol-1-yl)-10λ^6-thia-1,3,9,13,14-pentaazatetracyclo[16.2.1.111,14.02,7]docosa-2,4,6,11(22),12-pentaene-8,10,10-trione]
- EC50 [1]: < 1000 nM
- Max. Activity [1]: ++ (++ is 30-60%)
- ring closure, yield after HPLC ([2]; from Cc1nn(CCC[C@@H]2CNC(C)(C)C2)cc1S(=O)(=O)NC(=O)c1ccc(-n2ccc(OCCC3(C(F)(F)F)CC3)n2)nc1Cl, 14-membered ring, K2CO3/CsF, 37.8 mM, 160.0 °C): 26%

Compound: Cc1c2cnn1CCCC1CN(c3nc(-n4ccc(OCC(C)(C)C(F)(F)F)n4)ccc3C(=O)NS2(=O)=O)C(C)(C)C1 (single isomer, unassigned; atropisomer 2)
- ring closure, yield after HPLC [2, 3]: 4%

Compound: Cc1cn2nc1S(=O)(=O)NC(=O)c1ccc(-n3ccc(OCCC4(C(F)(F)F)CC4)n3)nc1N1CC(CCC2)CC1(C)C (centres unmarked) [Compound 199, 12,20,20-trimethyl-4-(3-{2-[1-(trifluoromethyl)cyclopropyl]ethoxy}-1H-pyrazol-1-yl)-10λ^6-thia-1,3,9,14,22-pentaazatetracyclo[16.2.1.111,14.02,7]docosa-2(7),3,5,11(22),12-pentaene-8,10,10-trione]
- EC50 [1]: < 1000 nM
- Max. Activity [1]: ++ (++ is 30-60%)
- ring closure, yield after HPLC ([2]; from Cc1cn(CCCC2CNC(C)(C)C2)nc1S(=O)(=O)NC(=O)c1ccc(-n2ccc(OCCC3(C(F)(F)F)CC3)n2)nc1Cl, 14-membered ring, K2CO3/CsF/3A MS, 27.4 mM, 150.0 °C): 12%

Compound: CC1(C)CCC2CCCNc3cccc(n3)S(=O)(=O)NC(=O)c3ccc(-n4ccc(OCCC(C5CC5)C5CC5)n4)nc3N21 (centres unmarked) [Compound 131, 8-[3-(3,3-Dicyclopropylpropoxy)-1H-pyrazol-1-yl]-12,12-dimethyl-2λ^6-thia-3,9,11,19,24-pentaazatetracyclo[18.3.1.05,10.011,15]tetracosa-1(23),5(10),6,8,20(24),21-hexaene-2,2,4-trione]
- EC50 [1]: < 1000 nM
- Max. Activity [1]: ++ (++ is 30-60%)
- ring closure, yield after HPLC ([2]; from CC(C)(C)OC(=O)N1C(CCCNc2cccc(S(=O)(=O)NC(=O)c3ccc(-n4ccc(OCCC(C5CC5)C5CC5)n4)nc3Cl)n2)CCC1(C)C, 14-membered ring, K2CO3/CsF/3A MS, 94.1 mM, 150.0 °C, 2 steps): 39%

Compound: CC1(C)C[C@@H]2CCCOc3cccc(c3)S(=O)(=O)NC(=O)c3ccc(-n4ccc(OCCC5(C(F)(F)F)CC5)n4)nc3N1C2 [Compound 77, (14S)-12,12-Dimethyl-8-(3-{2-[1-(trifluoromethyl)cyclopropyl]ethoxy}-1H-pyrazol-1-yl)-18-oxa-2λ^6-thia-3,9,11-triazatetracyclo[17.3.1.111,14.05,10]tetracosa-1(23),5(10),6,8,19,21-hexaene-2,2,4-trione]
- EC50 [1]: < 1000 nM
- Max. Activity [1]: +++ (+++ is >60%)
- ring closure, yield after HPLC ([2]; from CC1(C)C[C@H](CCCOc2cccc(S(=O)(=O)NC(=O)c3ccc(-n4ccc(OCCC5(C(F)(F)F)CC5)n4)nc3Cl)c2)CN1, 15-membered ring, K2CO3/CsF/3A MS, 62.9 mM, 150.0 °C, 20.0 h, 2 steps): 20%

Compound: [2H]C([2H])(Oc1ccn(-c2ccc3c(n2)N2C[C@@H](CCCNc4nc(ccc4OCc4ccccc4)S(=O)(=O)NC3=O)CC2(C)C)n1)C([2H])([2H])C1C2(CC2)C12CC2
- ring closure, yield after HPLC ([2]; from [2H]C([2H])(Oc1ccn(-c2ccc(C(=O)NS(=O)(=O)c3ccc(OCc4ccccc4)c(NCCC[C@@H]4CN(C(=O)OC(C)(C)C)C(C)(C)C4)n3)c(Cl)n2)n1)C([2H])([2H])C1C2(CC2)C12CC2, 15-membered ring, K2CO3/4A MS, 100.9 mM, 140.0 °C, 2 steps): 44%

Compound: Cc1c2cnn1CCC[C@@H]1CN(c3nc(-n4ccc(OCCC5(C(F)(F)F)CC5)n4)ccc3C(=O)NS2(=O)=O)C(C)(C)C1
- ring closure, yield after HPLC ([2]; from Cc1c(S(=O)(=O)NC(=O)c2ccc(-n3ccc(OCCC4(C(F)(F)F)CC4)n3)nc2Cl)cnn1CCC[C@@H]1CNC(C)(C)C1, 14-membered ring, K2CO3/CsF, 37.8 mM, 160.0 °C): 6% and 16%

Compound: CC1(C)CC2CCNc3cccc(n3)S(=O)(=O)NC(=O)c3ccc(-n4ccc(OCCC(C5CC5)C5CC5)n4)nc3N1C2 (single isomer, unassigned; enantiomer 1)
- ring closure, yield after HPLC ([2]; from CC1(C)CC(CCNc2cccc(S(=O)(=O)NC(=O)c3ccc(-n4ccc(OCCC(C5CC5)C5CC5)n4)nc3Cl)n2)CN1, 14-membered ring, K2CO3/CsF/3A MS, 24.9 mM, 150.0 °C): 41%

Compound: CC1(C)CC2CCNc3cccc(n3)S(=O)(=O)NC(=O)c3ccc(-n4ccc(OCCC(C5CC5)C5CC5)n4)nc3N1C2 (single isomer, unassigned; enantiomer 2)
- ring closure, yield after HPLC ([2]; from CC1(C)CC(CCNc2cccc(S(=O)(=O)NC(=O)c3ccc(-n4ccc(OCCC(C5CC5)C5CC5)n4)nc3Cl)n2)CN1, 14-membered ring, K2CO3/CsF/3A MS, 22.7 mM, 150.0 °C): 29%

Compound: CC1(C)CC2CCCNc3cccc(n3)S(=O)(=O)NC(=O)c3ccc(Cl)nc3N1C2 (centres unmarked)
- ring closure, yield after HPLC ([2]; from CC1(C)CC(CCCNc2cccc(S(=O)(=O)NC(=O)c3ccc(Cl)nc3Cl)n2)CN1, 15-membered ring, K2CO3/CsF/3A MS, 82.2 mM, 140.0 °C): 38%

Compound: CC1(C)CCC2CCCNc3cccc(n3)S(=O)(=O)NC(=O)c3ccc(Cl)nc3N21 (centres unmarked)
- ring closure, yield after HPLC ([2]; from CC1(C)CCC(CCCNc2cccc(S(=O)(=O)NC(=O)c3ccc(Cl)nc3Cl)n2)N1, 14-membered ring, K2CO3/CsF/4A MS, 63.7 mM, 150.0 °C): 24%

Compound: CC1(C)CC2CCNc3cccc(n3)S(=O)(=O)NC(=O)c3ccc(-n4ccc(OCCCC5(C(F)(F)F)CC5)n4)nc3N1C2 (centres unmarked)
- ring closure, yield after HPLC ([2]; from CC1(C)CC(CCNc2cccc(S(=O)(=O)NC(=O)c3ccc(-n4ccc(OCCCC5(C(F)(F)F)CC5)n4)nc3Cl)n2)CN1, 14-membered ring, K2CO3/CsF/3A MS, 128.0 mM, 150.0 °C): 43%

Compound: CC1(C)CC2CCCn3ccc(n3)S(=O)(=O)NC(=O)c3ccc(Cl)nc3N1C2 (centres unmarked)
- ring closure, yield after HPLC ([2]; from CC(C)(C)OC(=O)N1CC(CCCn2nccc2S(=O)(=O)NC(=O)c2ccc(Cl)nc2Cl)CC1(C)C, 14-membered ring, K2CO3/CsF/3A MS, 89.2 mM, 140.0 °C, 2 steps): 12%

Compound: CC1(C)CCC2CCCOc3cccc(c3)S(=O)(=O)NC(=O)c3ccc(-n4ccc(OCCC5(C(F)(F)F)CC5)n4)nc3N21 (centres unmarked)
- ring closure, yield after HPLC ([2]; from CC(C)(C)OC(=O)N1C(CCCOc2cccc(S(=O)(=O)NC(=O)c3ccc(-n4ccc(OCCC5(C(F)(F)F)CC5)n4)nc3Cl)c2)CCC1(C)C, 14-membered ring, K2CO3, then CsF, 64.2 mM, 170.0 °C, 2 steps): 4%

Compound: Cc1c2cnn1CCCC1CN(c3nc(-n4ccc(OCC(C)(C)C(F)(F)F)n4)ccc3C(=O)NS2(=O)=O)C(C)(C)C1 (single isomer, unassigned; atropisomer 1)
- ring closure, yield after HPLC [2, 3]: 10%

Compound: Cc1cn2nc1S(=O)(=O)NC(=O)c1ccc(-n3ccc(OCCC(C4CC4)C4CC4)n3)nc1N1CC(CCC2)CC1(C)C (centres unmarked)
- ring closure, yield after HPLC ([2]; from Cc1cn(CCCC2CNC(C)(C)C2)nc1S(=O)(=O)NC(=O)c1ccc(-n2ccc(OCCC(C3CC3)C3CC3)n2)nc1Cl, 14-membered ring, K2CO3/CsF/3A MS, 58.8 mM, 150.0 °C): 38%

Compound: CC1(C)CC2CCCn3nccc3S(=O)(=O)NC(=O)c3ccc(Cl)nc3N1C2 (centres unmarked)
- ring closure, yield after HPLC ([2]; from tert-butyl 4-[3-[3-1(2,6-dichloropyridine-3-carbonyl)sulfamoyl]pyrazol-1-yl]propyl]-2,2-dimethyl-pyrrolidine-1-carboxylate, TFA (Boc off), CsF/K2CO3/3A MS, 89.2 mM, 140.0 °C, 2 steps): 4%

Compound: Cc1c2cnn1CCCCC1CN(c3nc(-n4ccc(OCCC5(C(F)(F)F)CC5)n4)ccc3C(=O)NS2(=O)=O)C(C)(C)C1 (centres unmarked)
- ring closure, yield after HPLC ([2]; from Cc1c(S(=O)(=O)NC(=O)c2ccc(-n3ccc(OCCC4(C(F)(F)F)CC4)n3)nc2Cl)cnn1CCCCC1CNC(C)(C)C1, 15-membered ring, K2CO3/CsF, 130.1 mM, 150.0 °C): 13%

Compound: Cc1ccc2nc1NCCCC1CN(c3nc(-n4ccc(OCCC5(C(F)(F)F)CC5)n4)ccc3C(=O)NS2(=O)=O)C(C)(C)C1 (centres unmarked)
- ring closure, yield after HPLC ([2]; from Cc1ccc(S(=O)(=O)NC(=O)c2ccc(-n3ccc(OCCC4(C(F)(F)F)CC4)n3)nc2Cl)nc1NCCCC1CNC(C)(C)C1, 15-membered ring, K2CO3/CsF/4A MS, 61.3 mM, 140.0 °C, 16.0 h): 42%

Compound: CC1(C)C[C@H]2CCCCCNc3cccc(n3)S(=O)(=O)NC(=O)c3ccc(-n4ccc(OCCC5(C(F)(F)F)CC5)n4)nc3N1C2 (single isomer, unassigned) [Compound 63, 12,12-dimethyl-8-(3-{2-[1-(trifluoromethyl)cyclopropyl]ethoxy}-1H-pyrazol-1-yl)-2λ^6-thia-3,9,11,20,25-pentaazatetracyclo[19.3.1.111,14.05,10]hexacosa-1(24),5,7,9,21(25),22-hexaene-2,2,4-trione]
- EC50 [1]: < 1000 nM
- Max. Activity [1]: +++ (+++ is >60%)
